Source: US20170306047A1, “PHARMACEUTICAL COMPOSITION FOR CANCER PREVENTION AND TREATMENT, CONTAINING NDRG3 EXPRESSION OR ACTIVITY INHIBITOR AS ACTIVE INGREDIENT, OR NDRG3 PROTEIN-SPECIFIC ANTIBODY AND USE THEREOF” (KOREA RESEARCH INSTITUTE OF BIOSCIENCE AND BIOTECHNOLOGY, priority 2014, published 2017)
Where a SMILES comes first, the peptide text is derived from it. The star is where a group is joined. Cbz = O=C(OCc1ccccc1)*

Columns and labels:
[1] = target: T1, recombinant human NDRG3-GST (Homo sapiens, UniProt Q9UGV2); experiment: In vitro ubiquitination assay of recombinant NDRG3 by PHD2/VHL complex; assay type: biochemical; details: L-lactate pH 7.0, 20 mM
T1 construct: made in house; host or cells: E. coli BL21 (NDRG3-GST); HEK293T immunoprecipitates (PHD2, VHL)
Protocol: Further, to check an effect of lactate generation on ubiquitination of the NDRG3, an in vitro ubiquitination assay was performed. First, HEK293T cells were transfected with the Flag-tagged PHD2 and HA-tagged VHL variants, as described in Example 3, collected, and then lysed. Thereafter, the protein lysate (500 μg) was reacted with an anti-HA affinity gel (Sigma) or an anti-Flag affinity gel (Sigma) at 4° C. for a day, and centrifuged to obtain recombinant PHD2 proteins or VHL proteins. Then, the recombinant PHD2-/VHL-binding proteins were untreated or treated with L-lactate (pH 7.0, 20 mM), and then reacted at 37° C. for an hour in 50 μl of a solution including recombinant human NDRG3-GST (4 μg) prepared by the method described in Example 4-1, 500 ng of a ubiquitin-activating enzyme (E1, Upstate), 1 μg of a ubiquitin-conjugating enzyme (E2 (UbcH5a), Upstate), 2.5 μg of ubiquitin-Flag (Sigma), 20 mM HEPES (pH 7.3), 5 mM MgCl2, 1 mM DTT, and 2 mM ATP. Subsequently, the mixture was incubated with a GST-conjugated agarose resin at 4° C. for 4 hours, and the precipitate was washed, and subjected to Western blotting using an anti-Flag antibody, as described in Example 3 (FIG. 15F).

[2] = target: T2, recombinant GST-NDRG3 (G138W) variant protein (Homo sapiens, UniProt Q9UGV2, G138W); experiment: In vitro binding assay with L-[14C]-lactate, NDRG3 (G138W) variant; details: 50 μg GST-NDRG3 (G138W) versus GST-NDRG3
T2 construct: made in house; host or cells: E. coli BL21
Protocol: Specifically, to confirm interaction between L-lactate and the NDRG3 protein, a site-directed mutation was performed, as described in Example 4-3, using the pGEX-4T-2-NDRG3, which was cloned by the method disclosed in Example 4-1, as a template, and primers listed in the following Table 4, thereby obtaining a pGEX-4T-2-NDRG3 (G138W) variant construct in which glycine (G) that was an amino acid at position 138 among the L-lactate binding sites of the NDRG3 was substituted with […]. […]
Also, to confirm interaction between L-lactate and the NDRG3 protein, an in vitro binding assay was performed. […] Subsequently, the NDRG3-bound agarose resin was transferred to a scintillation solution containing 2 ml of an LSC-cocktail (PerkinElmer), and ^14C values were measured, and plotted in a graph (Left panel of FIG. 16B). Also, GST, the recombinant GST-NDRG3 protein (50 μg) or the recombinant GST-NDRG3 (G138W) variant protein (50 μg) was reacted with 0.5 μCi of L-[^14C]-lactate (PerkinElmer) at 30° C. for an hour, and ^14C values were then measured in the same manner as described above, and plotted in a graph (Right panel of FIG. 16B).

[3] = target: T3, recombinant GST-NDRG3 protein (Homo sapiens, UniProt Q9UGV2); experiment: In vitro binding assay with L-[14C]-lactate, wild-type NDRG3; details: 50 μg GST-NDRG3 versus GST, 30° C., one hour
T3 construct: made in house; host or cells: E. coli BL21
Protocol: Also, to confirm interaction between L-lactate and the NDRG3 protein, an in vitro binding assay was performed. GST or the recombinant GST-NDRG3 protein (50 μg) was reacted with 0.5 μCi of unlabeled L-lactate (pH 7.0, Sigma) and L-[^14C]-lactate (PerkinElmer) at 30° C. for an hour. Thereafter, a GST-conjugated agarose resin was added thereto, and the resulting mixture was reacted for 4 hours. Then, a resin to which the NDRG3-GST protein was bound was separated from the reaction mixture, and impurities were removed using PBS. Subsequently, the NDRG3-bound agarose resin was transferred to a scintillation solution containing 2 ml of an LSC-cocktail (PerkinElmer), and ^14C values were measured, and plotted in a graph (Left panel of FIG. 16B). Also, GST, the recombinant GST-NDRG3 protein (50 μg) or the recombinant GST-NDRG3 (G138W) variant protein (50 μg) was reacted with 0.5 μCi of L-[^14C]-lactate (PerkinElmer) at 30° C. for an hour, and ^14C values were then measured in the same manner as described above, and plotted in a graph (Right panel of FIG. 16B).

[4] = tested on: NDRG3 protein in NDRG3-overexpressing HeLa cells; experiment: In vivo ubiquitination assay of NDRG3 under proteasome inhibition; assay type: cell-based; details: 20 μM for 8 hours, normoxic condition
Protocol: Specifically, a vector for transfection (an MSCV retroviral system) was constructed using a full-length NDRG3 cDNA (SEQ ID NO: 1) and a pMSCVneo retroviral vector (Clontech). To construct the viral vector, a GP293 cell line was transfected using lipofectamine (Invitrogen). After 48 hours, HeLa cells were treated with a cell supernatant containing NDRG3-retroviruses or control-retroviruses together with 6 μg/ml of polybrene for 24 hours. Then, the cells in which the NDRG3 was overexpressed were untreated or treated with 20 μM MG132 for 8 hours, and then collected. The collected cells were subjected to Western blotting using an anti-NDRG3 antibody and an anti-β-actin antibody (FIG. 7A).
Also, to determine ubiquitination of NDRG3 under a normoxic condition, an in vivo ubiquitination assay was performed. First, a vector for transfection was constructed using shNDRG3 (Sigma-Aldrich, SEQ ID NO: 4) and a lentiviral vector to inhibit expression of the NDRG3. To construct the viral vector, a packing cell line was transfected as described above. Thereafter, HeLa cells were treated with a cell supernatant containing the NDRG3 shRNA-expressing lentiviruses together with 6 μg/ml of polybrene, and kept in a DMEM medium supplemented with 10% FBS. […]

[5] = tested on: NDRG3 protein in MCF-7 cells; experiment: NDRG3 protein expression after PHD2 inhibition, Western blotting, MCF-7 cells; assay type: cell-based; details: varying concentration, 24 hours, normoxic condition (21% O2)
Protocol: (§1) Also, to determine the functional relationship between PHD2 and NDRG3, MCF-7 cells (FIG. 4B) or HeLa cells (FIG. 4C) were treated with a varying concentration of desferrioxamine (DFX), which was a PHD2 inhibitor, for 24 hours under a normoxic condition (21% O2), and then lysed, as described in Example 3. The cell lysate was subjected to Western blotting using anti-NDRG3, anti-HIF-1α, and anti-β-actin (FIGS. 4B and 4C).

[6] = tested on: NDRG3 protein in HeLa cells; experiment: NDRG3 protein expression after PHD2 inhibition, Western blotting, HeLa cells; assay type: cell-based; details: varying concentration, 24 hours, normoxic condition (21% O2)
Protocol: as §1

[7] = tested on: NDRG3 protein in MCF-7 cells; experiment: NDRG3 protein expression after inhibition of glycolysis, MCF-7 cells; assay type: cell-based; details: varying concentration, 24 hours, hypoxic condition (1% O2)
Protocol: Additionally, to check an effect of inhibition of glycolysis on expression of the NDRG3 protein, MCF-7 cells were treated with a varying concentration of 2-deoxyglucose (2-DG) inhibiting the glycolysis, statically cultured for 24 hours under a hypoxic condition (1% O2), as described in Example 5-2, and then collected and lysed, as described in Example 3. Thereafter, the MCF-7 cells were subjected to Western blotting using anti-NDRG3 and anti-β-actin antibodies (FIG. 15D).

[8] = tested on: human umbilical vein endothelial cells (HUVEC); experiment: Tube forming assay, culture broth of NDRG3 (N66D) variant-overexpressing Huh-1 cells; assay type: cell-based; details: ectopic NDRG3 (N66D) variant overexpressed, 24 hours, hypoxic condition (1% O2)
Protocol: (§2) Specifically, a tube forming assay was performed to check a change in angiogenesis activity by the NDRG3 deletion. First, the Huh-7 cells (2×10^5 cells/ml) in which the expression of the NDRG3 was inhibited using shNDRG3 according to the method described in Example 4-4, and the control Huh-7 cells were cultured for 24 hours under a hypoxic condition (1% O2), and a culture broth (1 ml) was recovered, and then cultured with human umbilical vein endothelial cells (HUVEC; 1×10^5 cells/ml) for 6 to 12 hours in a 6-well dish previously coated with Matrigel to observe formation of tubes (FIG. 13A).
(§3) Specifically, Huh-1 cells in which the NDRG3 (N66D) variant was overexpressed were prepared, and the control cells and the NDRG3 (N66D) variant-overexpressing Huh-1 cells were untreated or treated with sodium oxamate, statically cultured for 24 hours under a hypoxic condition (1% O2). Thereafter, the cells were collected, as described in Example 6-2, and then subjected to a tube forming assay (FIG. 18).

[9] = tested on: Huh-1 cells; experiment: MTT assay of cell growth, Huh-1 cells; assay type: cell-based; details: varying concentration, light hypoxic condition (3% O2)
Protocol: (§4) Specifically, to check the cell growth in response to the NDRG3 deletion, an MTT assay was performed. First, the NDRG3-deleted Huh-1 cells prepared by the method disclosed in Example 6-1, and the control Huh-1 cells was seeded at a density of 2,000 cells/well in a 96-well plate, and then cultured at 37° C. in a 5% CO2 incubator under a hypoxic condition (3% O2) over time. Thereafter, the cells were treated with a 1 mg/ml MTT solution diluted with PBS, and reacted for 2 hours. Then, a medium containing the MTT was removed, and the cells were treated with 100 μl of DMSO to dissolve MTT formazan crystals. Subsequently, an optical density of the cell suspension was measured at a wavelength of 570 nm using a spectrophotometer (FIG. 14A).
(§5) Specifically, to check an effect of the ectopic NDRG3 (N66D) variant on the cell growth after inhibition of the lactate generation, Huh-1 cells were transfected with an ectopic variant NDRG3 (N66D) expression vector, as described in Example 4-3. Then, the Huh-1 cells and the NDRG3 (N66D) variant-overexpressing Huh-1 cells were seeded at a density of 1,000 cells/well in a 96-well plate, treated with a varying concentration of sodium oxamate, statically cultured by time under a light hypoxic condition (3% O2). Thereafter, to check the cell growth, an MTT assay was performed, as described in Example 6-3, and plotted in a graph (FIG. 17A).

[10] = tested on: NDRG3 protein in MCF-7 cells; experiment: NDRG3 protein accumulation after inhibition of L-lactate generation, MCF-7 cells; assay type: cell-based; details: varying concentration, 24 hours, hypoxic condition (1% O2)
Protocol: Also, to check an effect of inhibition of the L-lactate generation on expression of the NDRG3 protein, MCF-7 cells were treated with a varying concentration of sodium oxamate that was a lactate dehydrogenase A (LDHA) inhibitor, statically cultured for 24 hours under a hypoxic condition (1% O2), as described in Example 5-2, and then collected and lysed, as described in Example 3. Thereafter, the cell lysate was subjected to Western blotting using anti-NDRG3, anti-HIF-1α and anti-β-actin antibodies, as described above, and L-lactate generation was determined, and then plotted in a graph. The values were normalized to the L-lactate standard curve (FIG. 15B).

[11] = tested on: human umbilical vein endothelial cells (HUVEC); experiment: Tube forming assay, culture broth of Huh-1 cells; assay type: cell-based; details: control Huh-1 cells, 24 hours, hypoxic condition (1% O2)
Protocol: as §2, §3

[12] = tested on: NDRG3 (N66D) variant in Huh-1 cells; experiment: NDRG3 variant accumulation after inhibition of lactate generation, NDRG3 (N66D)-overexpressing Huh-1 cells; assay type: cell-based; details: ectopic NDRG3 (N66D) variant overexpressed, 40 mM, light hypoxic condition
Protocol: (§6) Also, to check an effect of the inhibition of the lactate generation on expression of the ectopic variant NDRG3 (N66D) protein under a sustained hypoxic condition, Huh-1 cells and the NDRG3 (N66D) variant-overexpressing Huh-1 cells were untreated or treated with 40 mM sodium oxamate, statically cultured by time under a light hypoxic condition, and then collected and lysed, as described in Example 3. Thereafter, the cell lysate was subjected to Western blotting using anti-NDRG3 and anti-β-actin antibodies (FIG. 17E).

[13] = tested on: NDRG3 protein in Huh-1 cells; experiment: NDRG3 accumulation after inhibition of lactate generation, Western blotting, Huh-1 cells; assay type: cell-based; details: 40 mM, light hypoxic condition
Protocol: as §6

[14] = tested on: NDRG3 (N66D) variant-overexpressing Huh-1 cells; experiment: MTT assay of cell growth, NDRG3 (N66D) variant-overexpressing Huh-1 cells; assay type: cell-based; details: ectopic NDRG3 (N66D) variant overexpressed, light hypoxic condition (3% O2)
Protocol: as §4, §5

T1 sequence (Q9UGV2 whole entry): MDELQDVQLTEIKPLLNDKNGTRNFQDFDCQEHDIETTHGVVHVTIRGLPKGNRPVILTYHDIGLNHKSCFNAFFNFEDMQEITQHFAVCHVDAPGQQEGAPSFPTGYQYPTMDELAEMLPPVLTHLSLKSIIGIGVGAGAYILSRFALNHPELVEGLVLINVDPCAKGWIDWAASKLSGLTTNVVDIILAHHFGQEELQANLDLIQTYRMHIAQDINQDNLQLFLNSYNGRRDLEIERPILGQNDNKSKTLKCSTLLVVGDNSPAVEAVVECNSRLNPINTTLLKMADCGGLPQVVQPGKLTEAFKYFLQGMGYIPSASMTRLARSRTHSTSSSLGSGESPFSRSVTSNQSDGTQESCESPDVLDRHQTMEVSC
T3 sequence (Q9UGV2 whole entry): as above
T2 sequence (Q9UGV2 whole entry G138W): as the sequence (Q9UGV2 whole entry) above, with G138W counted along it

C[C@H](O)C(=O)O [lactate, L-lactate]
ubiquitination of recombinant NDRG3 protein by PHD2/VHL complex [1]: reduced
lactate-binding affinity of NDRG3 variant protein (14C values) [2]: reduced
in vitro binding of recombinant NDRG3 protein to lactate (14C values) [3]: increased

CC(C)C[C@@H](C=O)NC(=O)[C@H](CC(C)C)NC(=O)[C@H](CC(C)C)NC(=O)OCc1ccccc1 [MG132] (Cbz-Leu-Leu-Leu-aldehyde)
ubiquitination of NDRG3 protein [4]: actively ubiquitinated

CC(=O)N(O)CCCCCNC(=O)CCC(=O)N(O)CCCCCNC(=O)CCC(=O)N(O)CCCCCN [DFX, desferrioxamine]
expression of NDRG3 protein [5]: increasingly expressed
expression of NDRG3 protein [6]: increasingly expressed

O=CC[C@@H](O)[C@H](O)[C@H](O)CO [2-deoxyglucose]
expression of NDRG3 protein [7]: reduced

NC(=O)C(=O)[O-].[Na+] [sodium oxamate]
angiogenesis (tube formation) [8]: increased again
cell growth (MTT) [9]: inhibited in a concentration-dependent manner
accumulation of NDRG3 protein [10]: inhibited in proportion to the lactate expression
angiogenesis (tube formation) [11]: inhibited
accumulation of NDRG3 variant [12]: lasted
accumulation of NDRG3 [13]: inhibited
cell growth (MTT) [14]: increased
